Results as given in ChEMBL document CHEMBL1138227, “N1-substituted thymine derivatives as mitochondrial thymidine kinase (TK-2) inhibitors” (J Med Chem, 2006).

Legend:
Deoxynucleoside kinase = molecular target: T1, Deoxynucleoside kinase (Drosophila melanogaster, UniProt Q9XZT6); test: Inhibition of [3H]methyl dThd phosphorylation by Drosophila melanogaster dNK
T1 sequence (Q9XZT6 whole entry): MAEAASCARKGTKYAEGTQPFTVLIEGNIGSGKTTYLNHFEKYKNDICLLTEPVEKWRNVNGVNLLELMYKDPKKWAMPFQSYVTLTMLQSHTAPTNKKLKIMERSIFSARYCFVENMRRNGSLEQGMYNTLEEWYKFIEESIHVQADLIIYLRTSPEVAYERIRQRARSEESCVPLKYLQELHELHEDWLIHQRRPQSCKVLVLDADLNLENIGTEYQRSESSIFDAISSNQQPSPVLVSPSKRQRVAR

[1] = Cytotoxicity against human OST TK- cells expressing HSV1 TK in presence of 5 uM 1-[6-(triphenylmethoxy)hexyl]thymine; assay type: cell-based
[2] = Cytotoxicity against human OST TK- cells expressing HSV1 TK in presence of 2.5 uM 1-[6-(triphenylmethoxy)hexyl]thymine; assay type: cell-based
[3] = Cytotoxicity against human OST TK- cells expressing HSV1 TK in presence of 5 uM 1-[6-[1,1-(diphenyl)-1-(4-pyridyl)methoxy]hexyl]thymine; assay type: cell-based
[4] = Cytotoxicity against human OST TK- cells expressing HSV1 TK; assay type: cell-based
[5] = Cytotoxicity against human OST TK- cells expressing HSV1 TK in presence of 2.5 uM 1-[6-[1,1-(diphenyl)-1-(4-pyridyl)methoxy]hexyl]thymine; assay type: cell-based
[6] = Cytotoxicity against human OST TK- cells expressing HSV1 TK in presence of 10 uM 1-[6-[1,1-(diphenyl)-1-(4-pyridyl)methoxy]hexyl]thymine; assay type: cell-based
[7] = Cytotoxicity against human OST TK- cells expressing HSV1 TK in presence of 10 uM 1-[6-(triphenylmethoxy)hexyl]thymine; assay type: cell-based
Thymidine kinase = molecular target: T2, Thymidine kinase (Human alphaherpesvirus 1, UniProt Q9QNF7); test: Inhibition of [3H]methyl dThd phosphorylation by HSV1 TK
T2 sequence (Q9QNF7 whole entry): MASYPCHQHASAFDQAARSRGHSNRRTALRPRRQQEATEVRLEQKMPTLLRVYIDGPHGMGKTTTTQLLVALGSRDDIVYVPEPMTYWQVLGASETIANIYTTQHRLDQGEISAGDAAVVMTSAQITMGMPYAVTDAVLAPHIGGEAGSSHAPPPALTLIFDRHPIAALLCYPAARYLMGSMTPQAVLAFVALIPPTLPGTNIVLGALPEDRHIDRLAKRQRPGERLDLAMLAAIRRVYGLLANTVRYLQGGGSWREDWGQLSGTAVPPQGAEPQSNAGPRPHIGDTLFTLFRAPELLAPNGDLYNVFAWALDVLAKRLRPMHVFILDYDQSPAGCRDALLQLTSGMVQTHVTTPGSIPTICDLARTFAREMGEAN

[8] = molecular target: T3, Thymidine kinase 2, mitochondrial (Homo sapiens, UniProt O00142); test: Inhibition of [3H]methyl dThd phosphorylation by TK2
T3 sequence (O00142 whole entry): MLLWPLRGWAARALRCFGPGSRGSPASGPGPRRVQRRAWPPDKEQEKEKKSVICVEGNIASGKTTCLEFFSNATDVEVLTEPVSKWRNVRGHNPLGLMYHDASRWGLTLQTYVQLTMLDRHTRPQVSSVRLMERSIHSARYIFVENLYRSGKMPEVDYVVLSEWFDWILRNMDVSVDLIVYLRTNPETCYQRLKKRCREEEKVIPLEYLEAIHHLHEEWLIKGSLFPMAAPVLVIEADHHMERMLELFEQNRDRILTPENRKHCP

[9] = molecular target: T3, Thymidine kinase 2, mitochondrial; test: Inhibition of TK2

Row | SMILES | IC50 (Deoxynucleoside kinase) | IC50 [1] | IC50 [2] | IC50 [3] | IC50 [4] | IC50 [5] | IC50 [6] | IC50 [7] | IC50 (Thymidine kinase) | IC50 [8] | Ki [9]
1 | Cc1cn(C/C=C\COC(c2ccccc2)(c2ccccc2)c2ccccc2)c(=O)[nH]c1=O | 3300 nM | – | – | – | – | – | – | – | – | – | –
2 | Cc1cn([C@@H]2O[C@H](CO)[C@@H](O)[C@@H]2O)c(=O)[nH]c1=O | – | 100 nM | 55 nM | 240 nM | 6.2 nM | 120 nM | 370 nM | 150 nM | – | – | –
3 | Cc1cn(CCCCCOC(c2ccccc2)(c2ccccc2)c2ccccc2)c(=O)[nH]c1=O | 15000 nM | – | – | – | – | – | – | – | 32000 nM | 2500 nM | –
4 | Cc1cn(CCCCCCOC(c2ccccc2)(c2ccccc2)c2ccccc2)c(=O)[nH]c1=O | 17000 nM | 100 nM | 55 nM | 33 nM | – | 18 nM | 41 nM | 150 nM | 3700 nM | 500 nM | –
5 | CNC(=O)c1ccc(C(OCCCCCCn2cc(C)c(=O)[nH]c2=O)(c2ccccc2)c2ccccc2)cc1 | 3500 nM | – | – | – | – | – | – | – | 700 nM | 390 nM | –
6 | Cc1cn(CCCCCCCOC(c2ccccc2)(c2ccccc2)c2ccccc2)c(=O)[nH]c1=O | 32000 nM | – | – | – | – | – | – | – | ≥ 50000 nM | 4700 nM | –
7 | Cc1cn(CCOCCOC(c2ccccc2)(c2ccccc2)c2ccc(Cl)cc2)c(=O)[nH]c1=O | 45000 nM | – | – | – | – | – | – | – | 2700 nM | 5200 nM | –
8 | Cc1cn(CCOCCOC(c2ccccc2)(c2ccccc2)c2ccncc2)c(=O)[nH]c1=O | 35000 nM | – | – | – | – | – | – | – | 21000 nM | 23000 nM | –
9 | Cc1cn(CCOCCOC(c2ccccc2)(c2ccccc2)c2ccccc2)c(=O)[nH]c1=O | 56000 nM | – | – | – | – | – | – | – | 17000 nM | 9700 nM | –
10 | Cc1cn(C/C=C\COC(c2ccccc2)(c2ccccc2)c2cc[n+](C)cc2)c(=O)[nH]c1=O | 144000 nM | – | – | – | – | – | – | – | > 500000 nM | 114000 nM | –
11 | Cc1cn(CCCCCCOC(c2ccccc2)(c2ccccc2)c2ccc(Cl)cc2)c(=O)[nH]c1=O | 47000 nM | – | – | – | – | – | – | – | 1000 nM | 1900 nM | –
12 | Cc1cn(CCCCCCOC(c2ccccc2)(c2ccccc2)c2ccncc2)c(=O)[nH]c1=O | 2700 nM | 240 nM | 120 nM | 81 nM | – | 50 nM | 110 nM | 370 nM | 2000 nM | 470 nM | 290 nM
13 | Cc1cn(C/C=C\COC(c2ccccc2)(c2ccccc2)c2ccc(Cl)cc2)c(=O)[nH]c1=O | 5700 nM | – | – | – | – | – | – | – | 18000 nM | 2400 nM | –
14 | Cc1cn(C/C=C\COC(c2ccccc2)(c2ccccc2)c2ccncc2)c(=O)[nH]c1=O | 3400 nM | – | – | – | – | – | – | – | 25000 nM | 1800 nM | –
15 | Cc1cn(CCCCCCCCOC(c2ccccc2)(c2ccccc2)c2ccccc2)c(=O)[nH]c1=O | 30000 nM | – | – | – | – | – | – | – | > 500000 nM | 45000 nM | –
16 | Cc1cn(CCCOC(c2ccccc2)(c2ccccc2)c2ccccc2)c(=O)[nH]c1=O | 21000 nM | – | – | – | – | – | – | – | 46000 nM | 45000 nM | –
17 | CNC(=O)c1ccc(C(OC/C=C\Cn2cc(C)c(=O)[nH]c2=O)(c2ccccc2)c2ccccc2)cc1 | 1600 nM | – | – | – | – | – | – | – | 42000 nM | 1900 nM | –
18 | Cc1cn(CCCCCCOC(c2ccccc2)(c2ccccc2)c2cc[n+](C)cc2)c(=O)[nH]c1=O | 29000 nM | – | – | – | – | – | – | – | 41000 nM | 23000 nM | –
19 | Nc1nc2c(ncn2COC(CO)CO)c(=O)[nH]1 [GANCICLOVIR] | – | 33 nM | 18 nM | 81 nM | 1.9 nM | 50 nM | 110 nM | 41 nM | – | – | –
